Measured values taken from patent publication US9556236B1, “Compositions and methods for treating respiratory syncytial virus infection” (priority 2012, dated 2017).
“Also recorded” adds a separate entry of the source. Positions of bridges follow the written chain, without caps; N, C: chain ends. No end group written: not given here.

Columns and labels:
RG RSV [1] = test: HR2-D peptide series, prophylactic model of infection in Vero cells, GFP by flow cytometry; type: cell-based, respiratory syncytial virus; settings: for GFP from positive control: prophylactic
Protocol: (§1) 25K Vero or A549 cells grown in 48-well plates and supplied with DMEM (no serum) were treated with a dose of peptides or micelle-peptides (5 μM peptide/well) for 30 min. previous to infection with RSV. Infection was carried out at a 0.1 MOI and allowed in the cell culture for 1 h. After removal of viral supernatant, the cells were treated with a second dose of peptides or peptide-loaded micelles containing 5 μM peptide/well in DMEM (5% FBS, 1% P/S). Infection was followed for a period of 48 h through microscopy and quantified through flow cytometry.
Infection experiments with the HR2-D series were carried out in Vero cells following a prophylactic model of infection using RG RSV (MOI=0.1) strain. At 48 h after infection, the cells were analyzed for GFP (positive RSV infection) by flow cytometry. […] Compared to HR2-D0, HR2-D1 is about 30% lower. For the activity of the inhibitor peptide HR2-D (˜20% GFP from positive control), as shown by the loss of activity by 1.5 fold for HR2-D2 vs. 2.5 fold for peptide HR2-D1. Moreover, the presence of the one free cysteine which is not forming a disulfide bond might result in destabilizing the whole structure. HR2-D1 and HR2-D2 have a free cysteine residue at position 9 and 32, respectively while HR2-S, HR2-D3 and HR2-D4 contain only one pair of cysteines.

RSV RA2 = test: Prophylactic model of RSV infection in HEp2 cells, flow cytometry with FITC-labeled anti-RSV staining, RA2 RSV; type: cell-based, respiratory syncytial virus; settings: two doses 5 μM peptide, 0.2 MOI
Protocol: (§2) The effect of inhibitory peptides (HR2-A, HR2-B, HR2-C, HR2-D, HR2-E, HR2-S, HR2-D0, HR2-D1, HR2-D2, HR2-D3, HR2-D4) on RG RSV infection given by prophylactic method was visualized by inverted fluorescence microscopy (Olympus IX371) and quantitated by flow cytometry. For plaque assays, 50K HEp2 cells/well were seeded in 24-well plates and infected with RG RSV (0.1-1 MOI) in the presence of peptides for 1 h. The viral supernatant was removed and a second dose of peptides in methylcellulose/5% FBS was overlaid onto the cells. Plaques were visualized and quantified (3-5 days pi). Cellular uptake was characterized using confocal microscopy and flow cytometry. For confocal imaging, 50K cells (Vero, A549) were placed on a […] and grown overnight before treatment with MPs (5 μM peptide conc./dish) and incubated for 1 h at 37° C. […] Uptake was quantified by flow cytometry (BD FacsAria analyzer/sorter). […] Final cell pellet was suspended in 400 μl of 1×PBS and analyzed for green and/or red content.
(§3) The anti-RSV activity of peptides HR2-S, HR2-E, HR2-A, HR2-B, HR2-C, and HR2-D was tested in vitro following a prophylactic model of RSV infection in HEp2 cells described in the experimental section above. RG and RA2 RSV strains were used to quantify infection by flow and RA2 and A2 strains were used to quantitate the viral titers by immunochemistry. […]

RG RSV [2] = test: Prophylactic model of RSV infection in HEp2 cells, flow cytometry of GFP, RG RSV; type: cell-based, respiratory syncytial virus; settings: two doses 5 μM peptide, 0.2 MOI, vs untreated positive control
Protocol: as §2, §3

RA2 RSV = test: RSV titers by plaque assay in HEp-2 cells in presence of peptide, RA2 strain; type: cell-based, respiratory syncytial virus; settings: 24-96 h after infection
Protocol: Growth and titration of the respiratory syncytial virus (RSV) strains A2, RG RSV (green-fluorescent tag), and rA2 were performed as previously described in the literature.^17,18 RSV was propagated in HEp-2 cells containing 0.1 PFU/cell in T-175 flasks supplied with 7 ml of 2% FBS, OptiMEM (virus yield 10^6-10^7 pfu/ml). Infection was allowed for 2 h. (at 37° C., 5% CO2) and then replaced with fresh media. The infection was allowed to progress until CPE (80-90%), typically happening after 3 days of incubation. Viral suspension was collected and combined with scrapped cells in to a vial and centrifuged at 3200 rpm for 10 min at 4° C. […] Last, viral supernatant was stored in cryovials and stored in liquid nitrogen tank.^18,19 Viral titers were measured using carboxymethylcellulose plaque assay on HEp-2 cells grown to 80-90% confluency at 5% FBS/DMEM in a 24-well plate (70K cells per well).^17,18,19 Virus particles were visible and quantitated after immunochemistry treatment of the cells with primary anti-RSV F mouse monoclonal [RSV3216 (B016)] […]
The effect of inhibitory peptides (HR2-A, HR2-B, HR2-C, HR2-D, HR2-E, HR2-S, HR2-D0, HR2-D1, HR2-D2, HR2-D3, HR2-D4) on RG RSV infection given by prophylactic method was visualized by inverted fluorescence microscopy (Olympus IX371) and quantitated by flow cytometry. […] Plaques were visualized and quantified (3-5 days pi). […]

A2 RSV = test: RSV titers by plaque assay in HEp-2 cells in presence of peptide, A2 strain; type: cell-based, respiratory syncytial virus; settings: for inhibition of A2 infection by viral titers: 24-96 h after infection
Protocol: Growth and titration of the respiratory syncytial virus (RSV) strains A2, RG RSV (green-fluorescent tag), and rA2 were performed as previously described in the literature.^17,18 RSV was propagated in HEp-2 cells containing 0.1 PFU/cell in T-175 flasks supplied with 7 ml of 2% FBS, OptiMEM (virus yield 10^6-10^7 pfu/ml). Infection was allowed for 2 h. (at 37° C., 5% CO2) and then replaced with fresh media. The infection was allowed to progress until CPE (80-90%), typically happening after 3 days of incubation. Viral suspension was collected and combined with scrapped cells in to a vial and centrifuged at 3200 rpm for 10 min at 4° C. The culture supernatant was collected and mixed with 0.1 volumes of sterile magnesium sulfate (1M). Last, viral supernatant was stored in cryovials and stored in liquid nitrogen tank.^18,19 Viral titers were measured using carboxymethylcellulose plaque assay on HEp-2 cells grown to 80-90% confluency at 5% FBS/DMEM in a 24-well plate (70K cells per well).^17,18,19 Virus particles were visible and quantitated after immunochemistry treatment of the cells with primary anti-RSV F mouse monoclonal [RSV3216 (B016)] (1:1000 dilution) and secondary antibody against primary with HRP conjugate.
The effect of inhibitory peptides (HR2-A, HR2-B, HR2-C, HR2-D, HR2-E, HR2-S, HR2-D0, HR2-D1, HR2-D2, HR2-D3, HR2-D4) on RG RSV infection given by prophylactic method was visualized by inverted fluorescence microscopy (Olympus IX371) and quantitated by flow cytometry. For plaque assays, 50K HEp2 cells/well were seeded in 24-well plates and infected with RG RSV (0.1-1 MOI) in the presence of peptides for 1 h. The viral supernatant was removed and a second dose of peptides in methylcellulose/5% FBS was overlaid onto the cells. Plaques were visualized and quantified (3-5 days pi). Cellular uptake was characterized using confocal microscopy and flow cytometry. For confocal imaging, 50K cells (Vero, A549) were placed on a […] and grown overnight before treatment with MPs (5 μM peptide conc./dish) and incubated for 1 h at 37° C. Cells were placed in a live-cell environmental chamber at 37° C. with 5% CO2 and imaged using spinning-disk confocal microscopy (Olympus IX81 confocal microscope). Uptake was quantified by flow cytometry (BD FacsAria analyzer/sorter). Samples for flow cytometry were prepared using 50K cells/well seeded in 24-well plates and grown in DMEM plus 10% FBS and incubated with peptides at a concentration of 5 μM peptide/well for 30 min at 37° C. […] Final cell pellet was suspended in 400 μl of 1×PBS and analyzed for green and/or red content.
Following the same methodology as for flow, two doses of peptides were used, and virus inoculation was 0.2 MOI. Titers were quantified 24 to 96 h after infection (pi).

[3] = Hydrodynamic diameter by dynamic light scattering; type: physicochemical; settings: DLS, in water
Protocol: The hydrodynamic radius of functionalized micelles (FMDs), micelle-peptide complexes (MPs), FMP, Cy5-amine-coated micelles and Cy5-HR2-D in water was measured using dynamic light scattering and zeta potential (DLS, Microtrac). Aliquots for DLS were prepared by diluting the stock samples 1:5, passing them through a 0.2 μm syringe-filter and sonicating for 10 min to disrupt aggregation.

RG RSV [4] = test: Free peptide and Cy5-labeled MPs, prophylactic model in Vero cells at low and high MOI, flow cytometry; type: cell-based, respiratory syncytial virus
Protocol: as §1
The effect of inhibitory peptides (HR2-A, HR2-B, HR2-C, HR2-D, HR2-E, HR2-S, HR2-D0, HR2-D1, HR2-D2, HR2-D3, HR2-D4) on RG RSV infection given by prophylactic method was visualized by inverted fluorescence microscopy (Olympus IX371) and quantitated by flow cytometry. […] Plaques were visualized and quantified (3-5 days pi). […] Uptake was quantified by flow cytometry (BD FacsAria analyzer/sorter). […] Final cell pellet was suspended in 400 μl of 1×PBS and analyzed for green and/or red content.
The hydrodynamic diameter of micelles with surface-conjugated peptides (MPs) was measured and compared to MPs with peptides also in the core (FMPs) (FIG. 6A). […] Subsequently experiments involved using Cy5 labeled peptides conjugated to the micelles and quantifying its activity against RG RSV infection by flow cytometry. […]

rgRSV = test: In vivo model of rgRSV infection and intranasal prophylactic treatment; parameters: species or system BALB/c mice; settings: intranasal 50 μL of 125 μM 1 h before rgRSV 1×10^6 pfu, 24 h post infection, vs empty micelle control
Protocol: Ten week old BALB/c mice (n=4 per group) were anesthetized and treated intranasally with the indicated HR2D peptide (125 μM in 1.2% DMSO) or packaged in filled micelles or with chitosan nanoparticles and empty micelles control. One hour post reatment, three groups of mice were inoculated with a single dose of rgRSV at 1×10^6 pfu/mouse. Mice were sacrificed at 24 hours post infection and the noses harvested, sectioned, stained with DAPI and imaged for GFP using an Olympus fluorescent microscope.
To determine if the in vitro anti-RSV activity of HR2D translated to an in vivo context, in vivo testing was performed on mice. HR2D peptide itself, HR2 peptide with filled micelles, empty micelles as control, and HR2D peptide chitosan nanocomplexes were each administered by nasal drop (50 μL of 125 μM solution in 1.2% DMSO) to ten week old BALB/c mice followed by intranasal inoculation with a single dose of rgRSV (1×10^6 pfu) one hour later. Mice were sacrificed 24 hours after infection, and the noses harvested, sectioned, stained with DAPI, and subjected to fluorescence imaging. […] Thus, we find that pretreatment of rgRSV-infected mice with intranasal HR2D peptide markedly decreases nasal infection.

RG RSV [5] = test: Therapeutic antiviral activity of FMDs in A549 cells infected with RG RSV; type: cell-based, respiratory syncytial virus; settings: administered 24 h pi, RG RSV low MOI
Protocol: 25K A549 cells grown in 48-well plates and supplied with DMEM (no serum) were infected with RSV at a 0.1 MOI for 1 h. After washing the viral supernatant, cells were incubated in DMEM (5% FBS, 1% P/S) allowing progression of infection for different time periods (4 and 24 h), however, only 24 h is shown here. At these two time points, cells were treated with a dose of peptides or micelle-peptides containing 5 μM peptide/well. Infection was followed for a period of 48 h through microscopy and quantified through Image J statistical analysis software.
For testing the efficiency of FMDs, cytotoxicity was measured in A549 cells at different HR2-D peptide concentrations using FM2D and FM3D, respectively (FIG. 10A). EM2 and EM3 represent empty micelle control. A549 cells were infected according to therapeutic conditions, and FMD (6 μM FM2D, 5 μM FM3D) were administered 24 h pi. The images were visualized 48 h pi (FIG. 10B) and the inhibitory efficiency quantified using flow cytometry (FIGS. 10C and 10D). […] FM3D had good inhibitory activity by suppressing the expression of GFP by 65% as compared to the control.

[6] = RG RSV MOI=0.1, 48 h after infection

DACISQVNEKINQSLAFIRKSDELLCNT (disulfide 3-26 (inferred)) [HR2-D3, ID NO.: 11]
activity less compared to HR2-S (RG RSV [1]; RG RSV MOI=0.1, 48 h): 3 fold

FDACISQVNECINQSLAFIRKSDELLHNVNAGKST (disulfide 4-11 (inferred)) [HR2-S, ID NO.: 2, one disulfide]
inhibition of RA2 RSV infection (RSV RA2): most effective inhibitor
inhibition of RG RSV infection (GFP expression) (RG RSV [2]): less GFP expression
inhibition of RA2 infection by viral titers (RA2 RSV): did inhibit RA2 infection
inhibition of A2 infection by viral titers (A2 RSV): did not block A2 infection effectively
reduction in A2 viral titers (A2 RSV; 24 h to 96 h pi, 0.2 MOI, 5 μM peptide): about 0.2 fold
GFP from positive control (RG RSV [1]; [6]): ~38%

DACISQVNECINQSLAFICKSDELLCNT (disulfide (positions not given here)) [HR2-D, ID NO.: 7, two disulfides]
inhibition of RG RSV infection (GFP expression) (RG RSV [2]): greatest inhibition of RG RSV infection
hydrodynamic diameter [3]: 2 nm
inhibition of A2 infection by viral titers (A2 RSV): greater inhibitory activity
decrease in A2 titers (A2 RSV; 96 h pi, 0.2 MOI): 50,000 fold
GFP from positive control (RG RSV [1]; [6]): ~20%
infection blocked compared to positive control (RG RSV [4]; low MOI (0.1), prophylactic, 24 h pi): 85%
neutralization (peptide release comparison with controls) (RG RSV [4]; virus concentration not stated at this place): 70%
RSV infection (GFP-positive cells) in nose sections (rgRSV): significantly decreased virus infected cells in the nose
RSV infection (GFP-positive cells) in nose sections (rgRSV; listed as HR2D peptide): marked reduction in GFP-positive nasal tissue
control of infection under therapeutic conditions (RG RSV [5]): did not control the infection significantly

DASISQVNEKINQSLAFIRKSDELLHNT (Chemically synthesized anti-RSV peptide) [HR2-D0, ID NO.: 8, control peptide with no cysteine]
inhibitory activity against RSV infection (RG RSV [1]; [6]): did not show any inhibitory activity; also recorded: lack of activity

DACISQVNECINQSLAFIRKSDELLCNT (not fully specified (bridges); cysteine pairing not given here) [HR2-D2, ID NO.: 10]
loss of activity relative to HR2-D (RG RSV [1]; RG RSV MOI=0.1, 48 h): 1.5 fold

DACISQVNEKINQSLAFICKSDELLCNT (not fully specified (bridges); cysteine pairing not given here) [HR2-D1, ID NO.: 9]
GFP lower compared to HR2-D0 (RG RSV [1]; RG RSV MOI=0.1, 48 h): about 30%
loss of activity relative to HR2-D (RG RSV [1]; RG RSV MOI=0.1, 48 h): 2.5 fold

DASISQVNECINQSLAFICKSDELLHNT (disulfide 10-19 (inferred)) [HR2-D4, ID NO.: 12]
activity less compared to HR2-S (RG RSV [1]; RG RSV MOI=0.1, 48 h): 2 fold
